Here are results for 22 compounds from US8685977B2, “Chemical compounds” (Pfizer Limited, priority 2010, dated 2014).

T1 sequence (Q15858 whole entry): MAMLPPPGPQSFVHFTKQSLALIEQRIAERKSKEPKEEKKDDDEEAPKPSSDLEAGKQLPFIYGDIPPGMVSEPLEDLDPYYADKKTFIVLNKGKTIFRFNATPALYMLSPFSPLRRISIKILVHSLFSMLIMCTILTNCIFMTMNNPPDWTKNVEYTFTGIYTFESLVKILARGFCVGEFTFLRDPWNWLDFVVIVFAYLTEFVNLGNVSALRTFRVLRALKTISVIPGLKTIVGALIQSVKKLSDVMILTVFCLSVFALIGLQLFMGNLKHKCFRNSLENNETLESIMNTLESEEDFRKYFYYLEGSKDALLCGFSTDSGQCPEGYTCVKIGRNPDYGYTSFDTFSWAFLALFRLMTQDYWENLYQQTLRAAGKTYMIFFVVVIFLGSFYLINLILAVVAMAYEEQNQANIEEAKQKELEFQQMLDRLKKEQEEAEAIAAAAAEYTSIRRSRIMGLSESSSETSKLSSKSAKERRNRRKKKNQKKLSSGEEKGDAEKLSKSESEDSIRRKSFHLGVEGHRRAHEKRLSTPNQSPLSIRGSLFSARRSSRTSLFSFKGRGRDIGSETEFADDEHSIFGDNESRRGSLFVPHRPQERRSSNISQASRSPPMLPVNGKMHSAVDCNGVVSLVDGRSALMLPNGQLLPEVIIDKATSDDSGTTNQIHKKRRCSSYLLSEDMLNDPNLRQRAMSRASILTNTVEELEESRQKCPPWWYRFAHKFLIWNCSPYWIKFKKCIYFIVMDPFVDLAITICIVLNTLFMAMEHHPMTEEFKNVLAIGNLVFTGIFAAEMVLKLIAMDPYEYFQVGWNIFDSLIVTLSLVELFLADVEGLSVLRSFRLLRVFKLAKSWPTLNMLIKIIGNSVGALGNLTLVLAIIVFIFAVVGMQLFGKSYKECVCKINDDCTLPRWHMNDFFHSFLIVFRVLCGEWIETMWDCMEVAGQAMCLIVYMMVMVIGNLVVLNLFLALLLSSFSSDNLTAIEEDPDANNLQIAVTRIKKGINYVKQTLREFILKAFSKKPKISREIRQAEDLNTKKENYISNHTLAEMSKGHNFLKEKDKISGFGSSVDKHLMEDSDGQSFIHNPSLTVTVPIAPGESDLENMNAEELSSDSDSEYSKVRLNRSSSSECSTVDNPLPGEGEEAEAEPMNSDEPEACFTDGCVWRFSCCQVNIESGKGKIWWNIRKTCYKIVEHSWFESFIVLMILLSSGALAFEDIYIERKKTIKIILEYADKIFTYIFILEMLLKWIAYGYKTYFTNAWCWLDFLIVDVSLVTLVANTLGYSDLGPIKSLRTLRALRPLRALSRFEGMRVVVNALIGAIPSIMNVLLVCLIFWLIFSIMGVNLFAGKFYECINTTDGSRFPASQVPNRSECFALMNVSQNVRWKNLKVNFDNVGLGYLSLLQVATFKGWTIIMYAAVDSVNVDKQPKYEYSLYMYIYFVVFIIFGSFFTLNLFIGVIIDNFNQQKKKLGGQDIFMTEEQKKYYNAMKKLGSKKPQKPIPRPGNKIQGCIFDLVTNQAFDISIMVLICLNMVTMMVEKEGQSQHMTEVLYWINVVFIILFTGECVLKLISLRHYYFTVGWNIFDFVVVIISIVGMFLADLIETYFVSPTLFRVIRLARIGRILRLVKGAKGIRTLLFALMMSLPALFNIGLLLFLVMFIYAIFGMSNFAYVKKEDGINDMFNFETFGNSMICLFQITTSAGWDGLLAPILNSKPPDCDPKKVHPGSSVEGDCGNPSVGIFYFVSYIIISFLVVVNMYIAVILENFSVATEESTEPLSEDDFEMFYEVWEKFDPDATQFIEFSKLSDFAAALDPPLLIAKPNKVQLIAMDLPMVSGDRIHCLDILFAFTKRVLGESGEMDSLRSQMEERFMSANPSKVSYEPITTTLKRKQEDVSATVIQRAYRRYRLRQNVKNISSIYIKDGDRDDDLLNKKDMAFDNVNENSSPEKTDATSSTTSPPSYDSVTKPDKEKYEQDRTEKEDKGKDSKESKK

One experiment has as its target T1, Nav1.7 (or SCN9A) channel (Homo sapiens, UniProt Q15858).
T1 construct: expressed in transfected cells
The experiment in a line: Nav1.7 Ionworks Quattro automated electrophysiology assay (HEK cells expressing hSCN9A). Type of experiment: cell-based. To be noted: Ionworks assay (IW), read-out: Nav1.7 EIC50 (IW). The method, then:
The ability of the compounds of formula (I) to block the Nav1.7 (or SCN9A) channel was measured using the assays described below. Human Embryonic Kidney (HEK) cells were transfected with an hSCN9A construct using lipofectamine reagent (Invitrogen), using standard techniques. Cells stably expressing the hSCN9A constructs were identified by their resistance to G-418 (400 μg/ml). Clones were screened for expression using the whole-cell voltage-clamp technique. HEK cells stably transfected with hSCN9A were maintained in DMEM medium supplemented with 10% heat-inactivated fetal bovine serum and 400 μg/ml G-418 in an incubator at 37° C. with a humidified atmosphere of 10% CO2. For HTS, cells were harvested from flasks by trypsinization and replated in an appropriate multi-well plate (typically 96 or 384 wells/plate) such that confluence would be achieved within 24 hours of plating. For electrophysiological studies, cells were removed from the culture flask by brief trypsinization and re-plated at low density onto glass cover slips. Cells were typically used for electrophysiological experiments within 24 to 72 hours after plating. Electrophysiological assays were also conducted using the lonworks Quattro automated electrophysiological platform (Molecular Devices Corp). Intracellular and extracellular solutions were as described above with the following changes, 100 μg/ml amphotericin was added to the intracellular solution to perforate the membrane and allow electrical access to the cells. hSCN9A cells were grown and harvested as for PatchXpress and cells were resuspended in extracellular solution at a concentration of 3−4×10^6 cells/ml. The onboard liquid handling facility of the lonworks Quattro was used for dispensing cells and application of test compounds. A voltage protocol was then applied that comprised of a voltage step to fully inactivate the sodium channels, followed by a brief hyperpolarized recovery period to allow partial recovery from inactivation for unblocked sodium channels, followed by a test depolarized voltage step to assess magnitude of inhibition by test compound. Compound effect was determined based on current amplitude difference between the pre-compound addition and post-compound addition scans. Compounds of the Examples were tested in the assays described above and found to have the Nav1.7 EIC50 (μM) values specified in the table below. All data are derived from the PatchXpress assay unless explicitly stated otherwise.
Consider `CS(=O)(=O)NC(=O)c1ccc(Oc2cccc(C(F)(F)F)c2Cl)cc1` [Example 210, 4-[2-chloro-3-(trifluoromethyl)phenoxy]-N-(methylsulfonyl)benzamide], for which the IC50 turned out to be 288 µM.
As to `COc1c(C(=O)NS(C)(=O)=O)ccc(Oc2ccc(C)cc2)c1F` [Example 226, 3-fluoro-2-methoxy-4-(4-methylphenoxy)-N-(methylsulfonyl)benzamide], the IC50 was 300 µM.
Turning to `CS(=O)(=O)NC(=O)c1ccc(Oc2ccccc2OC(F)(F)F)cc1` [Example 209, N-(methylsulfonyl)-4-[2-(trifluoromethoxy)phenoxy]benzamide], the IC50 came to 28.2 µM.
For the compound `CS(=O)(=O)NC(=O)c1ccc(Oc2cc(C(F)(F)F)ccc2Cl)cc1` [Example 207, 4-[2-chloro-5-(trifluoromethyl)phenoxy]-N-(methylsulfonyl)benzamide], the IC50 was 13.7 µM.
On to `CS(=O)(=O)NC(=O)c1ccc(Oc2ccccc2C(F)(F)F)c(C#N)c1` [Example 271, 3-cyano-N-(methylsulfonyl)-4-[2-(trifluoromethyl)phenoxy]benzamide], for which the IC50 is more than 323 µM.
The same measure, in the same setting: in the case of `COc1ccc(Oc2ccc(C(=O)NS(C)(=O)=O)cc2C#N)cc1` [Example 274, 3-cyano-4-(4-methoxyphenoxy)-N-(methylsulfonyl)benzamide] it was 277 µM.
Same read-out and setting: in the case of `COc1c(C(=O)NS(C)(=O)=O)ccc(Oc2ccc(Cl)c(F)c2)c1F` [Example 221, 4-(4-chloro-3-fluorophenoxy)-3-fluoro-2-methoxy-N-(methylsulfonyl)benzamide] it was 300 µM; in that of `CCOc1cccc(Oc2ccc(C(=O)NS(C)(=O)=O)cc2)c1` [Example 259, 4-(3-ethoxyphenoxy)-N-(methylsulfonyl)benzamide], more than 323 µM; in that of `CS(=O)(=O)NC(=O)c1cc(Cl)c(Oc2ccccc2Cl)cc1F` [Example 300, 5-chloro-4-(2-chlorophenoxy)-2-fluoro-N-(methylsulfonyl)benzamide], 3.91 µM.
The same measure, in the same setting: in the case of `COc1cc(Oc2ccc(Cl)cc2)ccc1C(=O)NS(C)(=O)=O` [Example 235, 4-(4-chlorophenoxy)-2-methoxy-N-(methylsulfonyl)benzamide] it was 36.6 µM; in that of `CS(=O)(=O)NC(=O)c1cc(F)c(Oc2ccccc2C#N)cc1F` [Example 327, 4-(2-cyanophenoxy)-2,5-difluoro-N-(methylsulfonyl)benzamide], more than 323 µM.
For `Cc1ccccc1Oc1ccc(C(=O)NS(C)(=O)=O)cc1C#N` [Example 275, 3-cyano-4-(2-methylphenoxy)-N-(methylsulfonyl)benzamide], the IC50 worked out at 116 µM.
Same read-out and setting: with `CS(=O)(=O)NC(=O)c1ccc(Oc2ccc(C(F)(F)F)cc2)cc1C#N` [Example 243, 2-cyano-N-(methylsulfonyl)-4-[4-(trifluoromethyl)phenoxy]benzamide] the figure was 11.9 µM.
With `COc1ccc(Oc2cc(F)c(C(=O)NS(C)(=O)=O)cc2Cl)cc1` [Example 301, 5-chloro-2-fluoro-4-(4-methoxyphenoxy)-N-(methylsulfonyl)benzamide], the IC50 came to 61.7 µM.
On to `COc1cc(C(=O)NS(C)(=O)=O)ccc1Oc1ccc(F)c(C(F)(F)F)c1` [Example 241, 4-[4-fluoro-3-(trifluoromethyl)phenoxy]-3-methoxy-N-(methylsulfonyl)benzamide], for which the IC50 stood at 144 µM.
Take `CS(=O)(=O)NC(=O)c1ccc(Oc2ccc(F)c(C(F)(F)F)c2)cc1` [Example 208, 4-[4-fluoro-3-(trifluoromethyl)phenoxy]-N-(methylsulfonyl)benzamide]: the IC50 was 18.7 µM.
Same read-out and setting: with `CS(=O)(=O)NC(=O)c1ccc(Oc2ccccc2C#N)cc1` [Example 211, 4-(2-cyanophenoxy)-N-(methylsulfonyl)benzamide] the figure was 67 µM; with `CCOc1ccccc1Oc1ccc(C(=O)NS(C)(=O)=O)cc1C#N` [Example 273, 3-cyano-4-(2-ethoxyphenoxy)-N-(methylsulfonyl)benzamide], 44.8 µM.

For the next experiment, the target named is T1, Nav1.7 (or SCN9A) channel. The experiment in a line: Nav1.7 PatchXpress 7000 automated electrophysiology assay (HEK cells stably expressing hSCN9A). To be noted: voltage-clamped at V1/2 of inactivation, read-out: Nav1.7 EIC50. Type of experiment: cell-based. In a few lines: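 Automated whole-cell clamp (PatchXpress) of HEK cells stably expressing hSCN9A, at 22-24 °C, in extracellular buffer at pH 7.4. Cells were held at the measured V1/2 of inactivation, then stepped to 0 mV for 20 ms. Single-concentration % inhibition gave EIC50 = concentration × (100 − %inhibition)/%inhibition, excluding <20% or >80%.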
Turning to `CS(=O)(=O)NC(=O)c1cc(F)c(Oc2cc(Cl)ccc2Cl)cc1F` [Example 105, 4-(2,5-dichlorophenoxy)-2,5-difluoro-N-(methylsulfonyl)benzamide], the IC50 was more than 3 µM.
On the same count and under the same terms, in the case of `Cc1ccc(Oc2ccc(C(=O)NS(C)(=O)=O)cc2)c(C)c1` [Example 172, 4-(2,4-dimethylphenoxy)-N-(methylsulfonyl)benzamide] it was 16 µM.
Still for that read-out and setting: with `Cc1ccc(Oc2cc(F)c(C(=O)NS(C)(=O)=O)cc2Cl)cc1` [Example 291, 5-chloro-2-fluoro-4-(4-methylphenoxy)-N-(methylsulfonyl)benzamide] the figure was 0.42 µM.
Regarding `COc1cc(Cl)ccc1Oc1cc(OC)c(C(=O)NS(C)(=O)=O)cc1F` [Example 61, 4-(4-chloro-2-methoxyphenoxy)-5-fluoro-2-methoxy-N-(methylsulfonyl)benzamide], the IC50 was more than 10 µM.
